Source: PubChem BioAssay (NCI)
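Method: 48-hour compound exposure of cells in 96-well plates, five concentrations, linear interpolation of endpoints. GI50 is the concentration that inhibits growth by half. TGI marks complete inhibition of growth.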

Tests used:
Experiment in all cases: DTP human tumour cell line panel, 48 h
[1] = system: A549 NSCLC
[2] = system: SN12C renal
[3] = system: SNB-78 CNS
[4] = system: UO-31 renal
[5] = system: SF-539 CNS
[6] = system: NCI-H23 lung
[7] = system: UACC-62 melanoma
[8] = system: SK-MEL-5 melanoma
[9] = system: LXFL 529 NSCLC
[10] = system: PC-3 prostate

ClC/C=C/COC1CCCCO1 (stereo unspecified)
TGI [1]: > 100 µM
TGI [2]: > 100 µM
TGI [3]: > 100 µM
TGI [4]: > 100 µM
TGI [5]: > 100 µM
TGI [6]: > 100 µM
TGI [7]: > 100 µM
TGI [8]: > 100 µM
TGI [9]: > 100 µM

O=C1C=CC=C/C1=C1/SC(c2ccccc2)=C(O)N1c1ccccc1
TGI [1]: > 100 µM
TGI [2]: > 100 µM
TGI [3]: > 100 µM
TGI [4]: > 100 µM
TGI [5]: > 100 µM
TGI [6]: > 100 µM
TGI [7]: > 100 µM
TGI [8]: > 100 µM
TGI [9]: > 100 µM

C[CH2][Ge]([CH2]C)([CH2]C)[O]C(=O)C(OC(C)=O)c1ccccc1 (stereo unspecified)
GI50 [1]: > 100 µM
TGI [1]: > 100 µM
GI50 [2]: > 100 µM
TGI [2]: > 100 µM
GI50 [3]: > 100 µM
TGI [3]: > 100 µM
GI50 [4]: > 100 µM
TGI [4]: > 100 µM
GI50 [5]: > 100 µM
TGI [5]: > 100 µM
GI50 [6]: > 100 µM
TGI [6]: > 100 µM
GI50 [7]: > 100 µM
TGI [7]: > 100 µM
GI50 [8]: 71.6 µM
TGI [8]: > 100 µM
GI50 [9]: > 100 µM
TGI [9]: > 100 µM

CC1/C(=N\O)CC(c2ccccc2)N(C)C1c1ccccc1 (stereo unspecified)
TGI [1]: > 100 µM
TGI [2]: > 100 µM
TGI [3]: > 100 µM
TGI [4]: > 100 µM
TGI [5]: > 100 µM
TGI [6]: > 100 µM
TGI [7]: > 100 µM
TGI [8]: > 100 µM
TGI [9]: > 100 µM

O=C1CC(c2ccccc2)=Nc2ccccc2N1
TGI [1]: > 100 µM
TGI [2]: > 100 µM
TGI [3]: > 100 µM
TGI [4]: > 100 µM
TGI [5]: > 100 µM
TGI [6]: > 100 µM
TGI [7]: > 100 µM
TGI [8]: > 100 µM
TGI [9]: > 100 µM

CCOP(=O)(OCC)C1CCCOC1=O (stereo unspecified)
TGI [1]: > 100 µM
TGI [2]: > 100 µM
TGI [3]: > 100 µM
TGI [4]: > 100 µM
TGI [5]: > 100 µM
TGI [6]: > 100 µM
TGI [7]: > 100 µM
TGI [8]: > 100 µM
TGI [9]: > 100 µM

CCOC(=O)/C(=C/c1ccc(C(=O)OC)cc1)N(CC)CC
TGI [1]: > 100 µM
TGI [2]: > 100 µM
TGI [3]: 91.7 µM
TGI [4]: > 100 µM
TGI [5]: 60.1 µM
TGI [6]: > 100 µM
TGI [7]: > 100 µM
TGI [8]: > 100 µM
TGI [9]: > 100 µM

Cc1cccc(C)c1NC(=O)C1=NC(=S)NC(c2ccccc2)C1c1nc2ccccc2s1 (stereo unspecified)
TGI [1]: > 100 µM
TGI [2]: > 100 µM
TGI [3]: > 100 µM
TGI [4]: > 100 µM
TGI [5]: > 100 µM
TGI [6]: > 100 µM
TGI [7]: > 100 µM
TGI [8]: > 100 µM
TGI [9]: > 100 µM

O=c1[nH]c2ccccc2nc1/C=C(\O)c1ccccc1O
TGI [1]: > 100 µM
TGI [2]: > 100 µM
TGI [3]: > 100 µM
TGI [4]: > 100 µM
TGI [6]: > 100 µM
TGI [7]: > 100 µM
TGI [8]: > 100 µM
TGI [9]: > 100 µM

C[N+](C)(C)CC(=O)N/N=C(/C(=O)Nc1ccc(Br)cc1)C1C(=O)NC(=O)NC1=O
TGI [1]: > 100 µM
TGI [2]: > 100 µM
TGI [3]: > 100 µM
TGI [4]: > 100 µM
TGI [5]: > 100 µM
TGI [6]: > 100 µM
TGI [7]: > 100 µM
TGI [8]: > 100 µM
TGI [9]: > 100 µM

O=C(CC1OC(O)C(Cl)=C1Cl)c1cccnc1 (stereo unspecified)
TGI [1]: > 100 µM
TGI [2]: > 100 µM
TGI [3]: > 100 µM
TGI [4]: > 100 µM
TGI [5]: 1.41 µM
TGI [6]: > 100 µM
TGI [7]: > 100 µM
TGI [8]: > 100 µM
TGI [9]: > 100 µM

CN(C)CCNC(=O)c1cccc2cc3c(Cl)cccc3nc12
TGI [1]: 9.35 µM
TGI [2]: 3.95 µM
TGI [3]: 8.26 µM
TGI [4]: > 28.7 µM
TGI [5]: 4.03 µM
TGI [6]: 3.23 µM
TGI [7]: 3.82 µM

COCN1COCN=C1NC#N
TGI [1]: > 100 µM
TGI [2]: > 100 µM
TGI [3]: > 100 µM
TGI [4]: > 100 µM
TGI [5]: > 100 µM
TGI [6]: > 100 µM
TGI [7]: > 100 µM
TGI [8]: > 100 µM
TGI [9]: > 100 µM

CN(C)C(=N/O)/C(=N\O)N(C)C
TGI [1]: > 100 µM
TGI [2]: > 100 µM
TGI [3]: > 100 µM
TGI [4]: > 100 µM
TGI [5]: > 100 µM
TGI [6]: > 100 µM
TGI [7]: > 100 µM
TGI [9]: > 100 µM

NC(=O)c1cc([N+](=O)[O-])c(Cl)c([N+](=O)[O-])c1Cl
GI50 [1]: 1.88 µM
TGI [1]: 3.8 µM
GI50 [2]: 1.75 µM
TGI [2]: 3.27 µM
GI50 [4]: 1.58 µM
TGI [4]: 3.48 µM
GI50 [5]: 1.99 µM
TGI [5]: 3.79 µM
GI50 [6]: 1.96 µM
TGI [6]: 4.25 µM
GI50 [7]: 1.39 µM
TGI [7]: 2.85 µM
GI50 [8]: 1.71 µM
TGI [8]: 3.11 µM
GI50 [10]: 1.58 µM
TGI [10]: 3.1 µM

COc1cc(Nc2ncc(-c3ccccc3)o2)cc(OC)c1
GI50 [1]: > 25 µM
TGI [1]: > 25 µM
GI50 [2]: > 25 µM
TGI [2]: > 25 µM
GI50 [4]: > 25 µM
TGI [4]: > 25 µM
GI50 [5]: > 25 µM
TGI [5]: > 25 µM
GI50 [6]: > 25 µM
TGI [6]: > 25 µM
GI50 [7]: > 25 µM
TGI [7]: > 25 µM
GI50 [8]: > 25 µM
TGI [8]: > 25 µM
GI50 [10]: > 25 µM
TGI [10]: > 25 µM

N/C(=N\N=C\c1ccc(C(F)(F)F)cc1)NO
TGI [1]: 59.2 µM
TGI [2]: > 100 µM
TGI [3]: > 100 µM
TGI [5]: 50.6 µM
TGI [6]: 52.9 µM
TGI [7]: 21.7 µM
TGI [9]: > 100 µM

CCc1cccc(C)c1NC(=O)C(=O)CC(=O)c1ccc(Cl)s1
TGI [1]: > 100 µM
TGI [2]: > 100 µM
TGI [3]: > 100 µM
TGI [4]: > 100 µM
TGI [5]: > 100 µM
TGI [6]: > 100 µM
TGI [7]: > 100 µM
TGI [9]: > 100 µM

CC1=C(c2ccccc2)C(O)(c2ccccc2)C(C)C1=O (stereo unspecified)
GI50 [1]: 32.5 µM
TGI [1]: > 100 µM
GI50 [2]: 15.4 µM
TGI [2]: > 100 µM
GI50 [4]: 13.2 µM
TGI [4]: > 100 µM
GI50 [5]: 17.1 µM
TGI [5]: > 100 µM
GI50 [6]: 10.1 µM
TGI [6]: 46.4 µM
GI50 [7]: 9.97 µM
TGI [7]: > 100 µM
GI50 [8]: 14 µM
TGI [8]: > 100 µM
GI50 [10]: 22.8 µM
TGI [10]: > 100 µM

Cc1ccccc1NC(=O)c1sc2nc(C)c(C(=O)/C=C/c3ccccc3)cc2c1N
GI50 [1]: 1.58 µM
TGI [1]: 9.7 µM
GI50 [2]: 1.07 µM
TGI [2]: 2.5 µM
GI50 [4]: 0.814 µM
TGI [4]: 1.53 µM
GI50 [5]: 0.977 µM
TGI [5]: 1.96 µM
GI50 [6]: 1.21 µM
TGI [6]: 3.16 µM
GI50 [7]: 0.9 µM
TGI [7]: 2.04 µM
GI50 [8]: 1.11 µM
TGI [8]: 2.71 µM
GI50 [10]: 1.33 µM
TGI [10]: 3.77 µM

CNC(=O)c1c(NC(=O)c2ccc(C(C)(C)C)cc2)sc2c1CCC(=O)C2
GI50 [1]: 0.3 µM
TGI [1]: 1.6 µM
GI50 [2]: 0.333 µM
TGI [2]: 1.4 µM
GI50 [4]: 0.214 µM
TGI [4]: 0.819 µM
GI50 [5]: 0.244 µM
TGI [5]: 1.22 µM
GI50 [6]: 0.266 µM
TGI [6]: 1.24 µM
GI50 [7]: 0.262 µM
TGI [7]: 1.28 µM
GI50 [8]: 0.349 µM
TGI [8]: 1.33 µM
GI50 [10]: 0.0797 µM
TGI [10]: 1.35 µM
